Like-named read-outs stand apart in the source and are kept apart here.
Molecular target: T1, CYP2C9 (Homo sapiens, UniProt P11712)
T1 construct: using pooled human liver microsomes; tissue BD Gentest Co. H161; host or cells: pooled human liver microsomes
Test: CYP2C9 diclofenac 4-hydroxylation inhibition in pooled human liver microsomes
Type: in vitro ADME
Conditions: for IC50: 10 μM diclofenac, mean ± SD, n = 3
Experimental: Phenacetin O-deethylase, coumarin 7-hydroxylase, amodiaquine N-deethylase, diclofenac 4-hydroxylase, S-mephenytoin 4-hydroxylase, bufuralol hydroxylase, and midazolam 1’-hydroxylase activities were determined as probe activities for CYP1A2, CYP2A6, CYP2C8, CYP2C9, CYP2C19, CYP2D6, and CYP3A4, respectively, using cocktail incubation and liquid chromatography-tandem mass spectrometry (LC/MS/MS). The incubation mixtures were prepared in a total volume of 200 μL, as follows: pooled human liver microsomes (0.25 mg/mL), 1.3 mM NADPH, 3.3 mM MgCl2, 50 mM potassium phosphate buffer (pH 7.4), and a cocktail of probe substrates and various concentrations of corydaline (1−200 μM). The substrates were used at concentrations approximately equal to their respective Km values: 50 μM phenacetin, 2.5 μM coumarin, 2.5 μM amodiaquine, 10 μM diclofenac, 100 μM S-mephenytoin, 5 μM bufuralol, and 2.5 μM midazolam. After a 3-min pre-incubation period at 37 °C, the reactions were initiated by addition of an NADP generating system and incubated for 20 min at 37 °C in a shaking water bath. After incubation, the reaction was stopped by placement of the tubes on ice and addition of 100 μL of ice-cold methanol containing internal standards (^13C2,^15N-acetaminophen for acetaminophen and N-desethylamodiaquine, d5-7-hydroxycoumarin for 7-hydroxycoumarin, ^13C6-4-hydroxydiclofenac for 4-hydroxydiclofenac, d3-4-hydroxy-mephenytoin for 4-hydroxymephenytoin and hydroxymidazolam, d9-1-hydroxybufuralol for 1-hydroxybufuralol). The incubation mixtures were then centrifuged at 13,000 × g for 5 min. All incubations were performed in triplicate and the mean values were used. […] The reaction was started by addition of a cocktail of CYP probe substrates.
All 7 metabolites produced from the cocktail of CYP isoform-specific substrates were simultaneously determined by LC/MS/MS [25]. The system consisted of a tandem quadrupole mass spectrometer (TSQ Quantum Access, ThermoFisher Scientific, San Jose, CA, USA) coupled with a Nanospace SI-2 LC system. Separation was performed on an Atlantis dC18 column (5 μm, 2.1 mm i.d. ×100 mm, Waters, Milford, MA, USA) using the gradient elution of a mixture of 5% methanol in 0.1% formic acid (mobile phase A) and 95% methanol in 0.1% formic acid (mobile phase B) at a flow rate of 0.25 mL/min: 10% mobile phase B for 1 min, 10% to 95% mobile phase B for 1 min, 95% mobile phase B for 5 min. The column and autosampler temperatures were 50 and 6 °C, respectively. After 1.5 min, the LC eluent was diverted from waste to the mass spectrometer fitted with the electrospray ionization (ESI) source and operated in positive ion mode. […] Quantification was performed by selected reaction monitoring (SRM) of the [M+H]^+ ion and the related product ion for each metabolite. […]
Reactions were initiated by addition of NADPH at 37 °C and stopped after 15 min by placement of the incubation tubes on ice and addition of ice-cold methanol (100 μL) containing an internal standard (2.0 μg/mL ^13C6-4-hydroxydiclofenac for diclofenac, 0.5 μg/mL d3-4-hydroxymephenytoin for mephenytoin, or 0.5 μg/mL d9-1-hydroxy-bufuralol for bufuralol). The incubation mixtures were centrifuged at 13,000 × g for 5 min, and aliquots (5 μL) of the supernatants were analyzed by LC/MS/MS. […] Aliquots (5 μL) were analyzed by LC/MS/MS. […]

T1 sequence (P11712 whole entry): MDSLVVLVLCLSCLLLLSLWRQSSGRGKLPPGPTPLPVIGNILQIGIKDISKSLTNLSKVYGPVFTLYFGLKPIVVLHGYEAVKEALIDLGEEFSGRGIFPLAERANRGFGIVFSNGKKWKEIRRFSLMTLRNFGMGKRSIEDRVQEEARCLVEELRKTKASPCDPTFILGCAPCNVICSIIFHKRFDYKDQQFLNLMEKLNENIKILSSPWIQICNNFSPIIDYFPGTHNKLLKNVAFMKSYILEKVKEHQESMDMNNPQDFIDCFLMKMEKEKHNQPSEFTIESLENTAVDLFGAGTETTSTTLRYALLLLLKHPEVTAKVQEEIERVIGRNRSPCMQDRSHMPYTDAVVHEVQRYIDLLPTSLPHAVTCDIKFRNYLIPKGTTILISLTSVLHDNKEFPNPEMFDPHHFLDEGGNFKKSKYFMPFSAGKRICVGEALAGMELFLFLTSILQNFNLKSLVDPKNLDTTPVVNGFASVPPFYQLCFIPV

- inhibition mode, CYP2C9 diclofenac 4-hydroxylation (Lineweaver, Dixon and secondary reciprocal plots): noncompetitive
- Ki (human liver microsomes, 1-10 μM diclofenac): 7.1 ± 0.4 µM
- Ki at 15 min (pH 7.4, probe diclofenac (1-10 μM), 4-hydroxylation, human liver microsomes, 1-10 μM diclofenac): 7 µM
- IC50 (pooled human liver microsomes (H161), read-out: IC50 no preincubation, CYP2C9 diclofenac 4-hydroxylation): 26.2 ± 4.6 µM
- IC50 (pre-incubated 30 min with NADPH, read-out: IC50 with preincubation, CYP2C9 diclofenac 4-hydroxylation): 30.6 ± 4.1 µM
SMILES: COc1cc2c(cc1OC)C1C(C)c3ccc(OC)c(OC)c3CN1CC2 (centres unmarked) [Corydaline, 2,3,9,10-tetramethoxy-13-methyl-5,8,13,13a-tetrahydro-6H-isoquino[3,2-a]isoquinoline]
